Data from US7005453B1, “Use of hop acids to inhibit growth of Staphylococcus aureus and prevent toxic shock syndrome” (Miller Brewing Company, priority 1999, dated 2006).

How the values were obtained:
Staphylococcus aureus = assay: MIC assay using Staphylococcus aureus in trypticase soy broth, growth scored by turbidity; assay type: cell-based; details: for growth (turbidity score): aerobic 37° C., three days; for minimum inhibitory concentration: S. aureus at pH 6.0
Method: (§1) Minimal inhibitory concentration (MIC) assays of several hop compounds were conducted using a Staphylococcus aureus species and vaginal isolates Lactobacillus vaginalias, Lactobacillus crispatus, Lactobacillus gasseri, and Lactobacillus jensenii as test microorganisms. Lactobacillus assays were conducted in Lactobacillus MRS broth (Difco) tubes. A 0.1 ml aliquot of a 1% (w/w) solution of each hop acid in alcohol was added to a tube of sterile MRS broth to give a final concentration of 100 ppm of the hop. This solution was serially diluted in tubes with sterile MRS broth using a two-fold dilution series. A second dilution series prepared as above, but using 0.1 ml alcohol without hop acid, was used as a positive control of bacterial growth. Each tube was inoculated with a fresh culture (10^4 cells) of a Lactobacillus species in MRS broth. The cultures were incubated anaerobically in a CO2 incubator at 28° C. for five days. Growth was evaluated by visually assessing and scoring development of turbidity in the tube of broth.
The MIC assays for Staphylococcus aureus were conducted in Difco trypticase soy broth (TSB) using the same serial dilution technique and the inoculum level as described above. The pH of the TSB was adjusted to pH7.0, pH 6.0, or pH5.0 using hydrochloric acid. The tubes were incubated aerobically at 37° C. for three days and growth was evaluated by visually assessing and scored the development of turbidity in the broth.

Lactobacillus species = assay: MIC assay using Lactobacillus species (vaginal isolates) in MRS broth, growth scored by turbidity; assay type: cell-based; details: for growth (turbidity score): MRS at pH 6.3, anaerobic 28° C., five days; for concentration as high as which Lactobacillus exhibited strong growth: Lactobacillus species tested
Method: as §1

tetrahydroiso alpha acids
growth (turbidity score) (Staphylococcus aureus; 0.2 ppm, TSB at pH 5.0): No growth | growth (turbidity score) (Staphylococcus aureus; 0.2 ppm, TSB at pH 6.0): ++ Growth | growth (turbidity score) (Staphylococcus aureus; 0.2 ppm, TSB at pH 7.0): +++ Growth | growth (turbidity score) (Staphylococcus aureus; 0.39 ppm, TSB at pH 5.0): No growth | growth (turbidity score) (Staphylococcus aureus; 0.39 ppm, TSB at pH 6.0): +/− Growth | growth (turbidity score) (Staphylococcus aureus; 0.39 ppm, TSB at pH 7.0): ++ Growth | growth (turbidity score) (Staphylococcus aureus; 0.78 ppm, TSB at pH 5.0): No growth | growth (turbidity score) (Staphylococcus aureus; 0.78 ppm, TSB at pH 6.0): No growth | growth (turbidity score) (Staphylococcus aureus; 0.78 ppm, TSB at pH 7.0): + Growth | growth (turbidity score) (Staphylococcus aureus; 1.56 ppm, TSB at pH 5.0): No growth | growth (turbidity score) (Staphylococcus aureus; 1.56 ppm, TSB at pH 6.0): No growth | growth (turbidity score) (Staphylococcus aureus; 1.56 ppm, TSB at pH 7.0): +/− Growth | growth (turbidity score) (Staphylococcus aureus; 3.125 ppm, TSB at pH 5.0): No growth | growth (turbidity score) (Staphylococcus aureus; 3.125 ppm, TSB at pH 6.0): No growth | growth (turbidity score) (Staphylococcus aureus; 3.125 ppm, TSB at pH 7.0): No growth | growth (turbidity score) (Staphylococcus aureus; 6.25 ppm, TSB at pH 5.0): No growth | growth (turbidity score) (Staphylococcus aureus; 6.25 ppm, TSB at pH 6.0): No growth | growth (turbidity score) (Staphylococcus aureus; 6.25 ppm, TSB at pH 7.0): No growth | growth (turbidity score) (Staphylococcus aureus; 12.5 ppm, TSB at pH 5.0): No growth | growth (turbidity score) (Staphylococcus aureus; 12.5 ppm, TSB at pH 6.0): No growth | growth (turbidity score) (Staphylococcus aureus; 12.5 ppm, TSB at pH 7.0): No growth | growth (turbidity score) (Staphylococcus aureus; 25 ppm, TSB at pH 5.0): No growth | growth (turbidity score) (Staphylococcus aureus; 25 ppm, TSB at pH 6.0): No growth | growth (turbidity score) (Staphylococcus aureus; 25 ppm, TSB at pH 7.0): No growth | growth (turbidity score) (Staphylococcus aureus; 50 ppm, TSB at pH 5.0): No growth | growth (turbidity score) (Staphylococcus aureus; 50 ppm, TSB at pH 6.0): No growth | growth (turbidity score) (Staphylococcus aureus; 50 ppm, TSB at pH 7.0): No growth | growth (turbidity score) (Staphylococcus aureus; 100 ppm, TSB at pH 5.0): No growth | growth (turbidity score) (Staphylococcus aureus; 100 ppm, TSB at pH 6.0): No growth | growth (turbidity score) (Staphylococcus aureus; 100 ppm, TSB at pH 7.0): No growth | concentration as low as which S. aureus showed no to very weak growth (Staphylococcus aureus): 1.56 ppm | minimum inhibitory concentration (Staphylococcus aureus): 0.78 ppm | growth (turbidity score) (Lactobacillus species; 0.2 ppm): +++ Growth | growth (turbidity score) (Lactobacillus species; 0.39 ppm): +++ Growth | growth (turbidity score) (Lactobacillus species; 0.78 ppm): +++ Growth | growth (turbidity score) (Lactobacillus species; 1.56 ppm): +++ Growth | growth (turbidity score) (Lactobacillus species; 3.125 ppm): +++ Growth | growth (turbidity score) (Lactobacillus species; 6.25 ppm): +++ Growth | growth (turbidity score) (Lactobacillus species; 12.5 ppm): ++ Growth | growth (turbidity score) (Lactobacillus species; 25 ppm): +/− Growth | growth (turbidity score) (Lactobacillus species; 50 ppm): No growth | growth (turbidity score) (Lactobacillus species; 100 ppm): No growth | concentration as high as which Lactobacillus exhibited strong growth (Lactobacillus species): 12.5 ppm

hexahydro beta acids
growth (turbidity score) (Staphylococcus aureus; 0.2 ppm, TSB at pH 5.0): No growth | growth (turbidity score) (Staphylococcus aureus; 0.2 ppm, TSB at pH 6.0): + Growth | growth (turbidity score) (Staphylococcus aureus; 0.2 ppm, TSB at pH 7.0): +++ Growth | growth (turbidity score) (Staphylococcus aureus; 0.39 ppm, TSB at pH 5.0): No growth | growth (turbidity score) (Staphylococcus aureus; 0.39 ppm, TSB at pH 6.0): No growth | growth (turbidity score) (Staphylococcus aureus; 0.39 ppm, TSB at pH 7.0): ++ Growth | growth (turbidity score) (Staphylococcus aureus; 0.78 ppm, TSB at pH 5.0): No growth | growth (turbidity score) (Staphylococcus aureus; 0.78 ppm, TSB at pH 6.0): No growth | growth (turbidity score) (Staphylococcus aureus; 0.78 ppm, TSB at pH 7.0): + Growth | growth (turbidity score) (Staphylococcus aureus; 1.56 ppm, TSB at pH 5.0): No growth | growth (turbidity score) (Staphylococcus aureus; 1.56 ppm, TSB at pH 6.0): No growth | growth (turbidity score) (Staphylococcus aureus; 1.56 ppm, TSB at pH 7.0): +/− Growth | growth (turbidity score) (Staphylococcus aureus; 3.125 ppm, TSB at pH 5.0): No growth | growth (turbidity score) (Staphylococcus aureus; 3.125 ppm, TSB at pH 6.0): No growth | growth (turbidity score) (Staphylococcus aureus; 3.125 ppm, TSB at pH 7.0): No growth | growth (turbidity score) (Staphylococcus aureus; 6.25 ppm, TSB at pH 5.0): No growth | growth (turbidity score) (Staphylococcus aureus; 6.25 ppm, TSB at pH 6.0): No growth | growth (turbidity score) (Staphylococcus aureus; 6.25 ppm, TSB at pH 7.0): No growth | growth (turbidity score) (Staphylococcus aureus; 12.5 ppm, TSB at pH 5.0): No growth | growth (turbidity score) (Staphylococcus aureus; 12.5 ppm, TSB at pH 6.0): No growth | growth (turbidity score) (Staphylococcus aureus; 12.5 ppm, TSB at pH 7.0): No growth | growth (turbidity score) (Staphylococcus aureus; 25 ppm, TSB at pH 5.0): No growth | growth (turbidity score) (Staphylococcus aureus; 25 ppm, TSB at pH 6.0): No growth | growth (turbidity score) (Staphylococcus aureus; 25 ppm, TSB at pH 7.0): No growth | growth (turbidity score) (Staphylococcus aureus; 50 ppm, TSB at pH 5.0): No growth | growth (turbidity score) (Staphylococcus aureus; 50 ppm, TSB at pH 6.0): No growth | growth (turbidity score) (Staphylococcus aureus; 50 ppm, TSB at pH 7.0): No growth | growth (turbidity score) (Staphylococcus aureus; 100 ppm, TSB at pH 5.0): No growth | growth (turbidity score) (Staphylococcus aureus; 100 ppm, TSB at pH 6.0): No growth | growth (turbidity score) (Staphylococcus aureus; 100 ppm, TSB at pH 7.0): No growth | concentration as low as which S. aureus showed no to very weak growth (Staphylococcus aureus): 1.56 ppm | minimum inhibitory concentration (Staphylococcus aureus): 0.78 ppm | growth (turbidity score) (Lactobacillus species; 0.2 ppm): +++ Growth | growth (turbidity score) (Lactobacillus species; 0.39 ppm): +++ Growth | growth (turbidity score) (Lactobacillus species; 0.78 ppm): +++ Growth | growth (turbidity score) (Lactobacillus species; 1.56 ppm): +++ Growth | growth (turbidity score) (Lactobacillus species; 3.125 ppm): +++ Growth | growth (turbidity score) (Lactobacillus species; 6.25 ppm): +++ Growth | growth (turbidity score) (Lactobacillus species; 12.5 ppm): +++ Growth | growth (turbidity score) (Lactobacillus species; 25 ppm): +/− Growth | growth (turbidity score) (Lactobacillus species; 50 ppm): No growth | growth (turbidity score) (Lactobacillus species; 100 ppm): No growth | concentration as high as which Lactobacillus exhibited strong growth (Lactobacillus species): 12.5 ppm
